From PMC10096175, “An In Vitro Antimicrobial, Anticancer and Antioxidant Activity of N–[(2–Arylmethylthio)phenylsulfonyl]cinnamamide Derivatives” (Molecules, 2023)
Converted amounts (≈) assume the structure as drawn. Read-outs that look alike come from different tables or passages of the source.

How the values were obtained:
C. albicans ATCC 10231 = experiment: MIC determination, reference fungal strain (microdilution); assay type: cell-based; settings: Candida albicans, ATCC10231; C. albicans ATCC 10231; read-out: MIC
DPPH assay = settings: DPPH radical scavenging; 40 min, room temperature
Method: The DPPH assay was performed spectrophotometrically. The amount of 30 µL of different concentrations of samples, dissolved in methanol/DMSO (9/1 v/v), was mixed with 170 µL of 0.06 mM DPPH methanolic solution and completed with methanol to a final volume of 300 µL. DPPH methanolic solution with methanol/DMSO (9/1 v/v) was used as a control. After 40 min of incubation at room temperature in the dark, the absorbance was analyzed at λ = 510 nm by a 96-well microplate reader (Epoch, BioTek System, Santa Clara, CA, USA). Ascorbic acid was used as a standard.
DPPH inhibition was calculated by the following equation:DPPH Inhibition (%) = [Acontrol − Asample)/Acontrol] × 100%
(§1) IC50 values of the samples were calculated using program GraFit v. 7.0 (Erithacus Software). The analysis was performed three times, with tree replications in each (n = 9). Statistical analysis was performed with one-way ANOVA with Tuckey’s post-hoc test.

E. faecalis ATCC 51299 = experiment: MIC determination, reference strain (microdilution); assay type: cell-based; settings: Enterococcus faecalis, ATCC51299; E. faecalis ATCC 51299; Co-trimoxazole as sulfamethoxazole/trimethoprim; read-out: MIC
HeLa cells = experiment: MTT assay; assay type: cell-based, human; settings: for IC50: HeLa, MTT, 24 h treatment; for Selectivity index (SI): IC50 HEK-293 / IC50 HeLa
HEK-293 cells = experiment: MTT assay, noncancerous cells; assay type: cell-based; settings: Homo sapiens, HEK293; HEK-293; MTT, 24 h treatment; read-out: IC50
ABTS assay = settings: ABTS radical scavenging; 10 min, 30 °C
Method: The ABTS assay was performed spectrophotometrically. […] ABTS solution with methanol/DMSO (9/1 v/v) was used as a control. After 10 min of incubation at 30 °C in the dark, the absorbance was analyzed at λ = 750 nm by a 96-well microplate reader (Epoch, BioTek System, Santa Clara, CA, USA). Ascorbic acid was used as a standard.
ABTS inhibition was calculated by the following equation:ABTS Inhibition (%) = [Acontrol − Asample)/Acontrol] × 100%
as §1

B. subtilis ATCC 6633 = experiment: MIC determination, reference strain (microdilution); assay type: cell-based; settings: Bacillus subtilis, ATCC6633; B. subtilis ATCC 6633; Co-trimoxazole as sulfamethoxazole/trimethoprim; read-out: MIC
C. diphtheriae = experiment: as above; assay type: cell-based; settings: Corynebacterium diphtheriae; C. diphtheriae; Co-trimoxazole as sulfamethoxazole/trimethoprim; read-out: MIC
S. aureus ATCC 6538 [1] = experiment: Blood bacteriostatic activity test in sheep blood; assay type: cell-based, Staphylococcus aureus; settings: 24 h, 37 °C, t0 1.30 × 10^8, control t24 2.28 × 10^9
Method: The manifestation of the bactericidal properties of chemical compounds is low minimum bactericidal concentration (MBC) values, which allows many groups of researchers to check the killing rate over time (time killing tests). It is an important element in determining the strength and speed of action of a compound on bacteria. Such studies are usually carried out in bacterial media, without additional factors influencing the results.
This step was carried out on two types of bacteria, S. aureus ATCC 6538 (Figure 8 and Table 2) and S. epidermidis ATCC 14 990 (Figure 9 and Table 3).
The number of bacteria at the initial time (t0) was 1.30 × 10^8 CFU/mL for S. aureus and 1.70 × 10^7 CFU/mL for S. epidermidis. Live bacterial cells were assayed after 24 h of incubation at 37 °C. […] Bacterial controls without compounds grew unhindered and after 24 h (t24) were 2.28 × 10^9 for S. aureus and 5.10 × 10^8 CFU/mL for S. epidermidis. […] It can be assumed that the tested compounds were not related to any fraction of the blood. Attention should be paid to the S. epidermidis tests and the difference between the number of bacteria at t0 and after 24 h of incubation for each compound. The number of bacteria at t0 was 1.70 × 10^7 CFU/mL and after 24 h it decreased to, e.g., 9.40 × 10^6 CFU/mL for compounds 16e and 7.80 × 10^6 CFU/mL for compound 17c. It can be assumed that the tested compounds after being added to blood samples prevented bacteria from multiplying. However, under these conditions, the phagocytic cells take up the bacteria. […] This can be explained by much greater variety of mechanisms of action of S. aureus against phagocytic cells than of S. epidermidis. This can be integrated with the bacterial cell compounds, e.g., protein A, as well as enzymes that bacteria can secrete outside the cell, e.g., coagulase and staphylokinase. Additional studies should be conducted to check how the tested compounds affect the enzymes secreted by S. aureus.
The assay was performed as previously described by with a modification. Pure sheep blood was used for the research. Two strains of bacteria S. aureus ATCC 6538 and S. epidermidis ATCC 14990 were used with an inoculum density of approximately 10^8 CFU/mL at 0 time. The final concentration of the compounds was 0.5, 1, 2, 4, and 8 µg/mL, and the final volume of the assay tube was 1 mL. Bacterial survivors were determined on MH agar plates (CFU/mL) at 24 h after exposure.

MCF-7 cells = experiment: MTT assay; assay type: cell-based, human; settings: for IC50: Homo sapiens, MCF7, MCF-7, MTT, 24 h treatment, read-out: IC50; for Selectivity index (SI): IC50 HEK-293 / IC50 MCF-7
E. hirae ATCC 10541 = experiment: MIC determination, reference strain (microdilution); assay type: cell-based; settings: Enterococcus hirae, ATCC10541; E. hirae ATCC 10541; Co-trimoxazole as sulfamethoxazole/trimethoprim; read-out: MIC
SKOV-3 cells = experiment: MTT assay; assay type: cell-based, human; settings: for IC50: Homo sapiens, SK-OV-3, SKOV-3, MTT, 24 h treatment, read-out: IC50; for Selectivity index (SI): IC50 HEK-293 / IC50 SKOV-3
[2] = test system: S. epidermidis ATCC 14990; experiment: MIC determination, reference strain (microdilution); assay type: cell-based; settings: Staphylococcus epidermidis, ATCC14990; S. epidermidis ATCC 14990; Co-trimoxazole as sulfamethoxazole/trimethoprim; read-out: MIC
S. aureus ATCC 6538 [3] = experiment: as above; assay type: cell-based; settings: Staphylococcus aureus, ATCC6538; S. aureus ATCC 6538; ± SD; Co-trimoxazole as sulfamethoxazole/trimethoprim; read-out: MIC
[4] = Homo sapiens, 24 h, read-out: IC50

SMILES | MIC (C. albicans ATCC 10231) | IC50 DPPH (DPPH assay) | MIC (E. faecalis ATCC 51299) | IC50 (HeLa cells; [4]) | Selectivity index (SI) (HeLa cells) | IC50 (HEK-293 cells) | IC50 ABTS (ABTS assay) | MIC (B. subtilis ATCC 6633) | MIC (C. diphtheriae) | Number of viable cells of Staphylococcus aureus (S. aureus ATCC 6538 [1]; 1 µg/mL) | Number of viable cells of Staphylococcus aureus (S. aureus ATCC 6538 [1]; 2 µg/mL) | Number of viable cells of Staphylococcus aureus (S. aureus ATCC 6538 [1]; 4 µg/mL) | Number of viable cells of Staphylococcus aureus (S. aureus ATCC 6538 [1]; 8 µg/mL) | IC50 (MCF-7 cells) | Selectivity index (SI) (MCF-7 cells) | MIC (E. hirae ATCC 10541) | IC50 (SKOV-3 cells) | Selectivity index (SI) (SKOV-3 cells) | MIC [2] | MIC (S. aureus ATCC 6538 [3]) | other results
Cc1cc(S(=O)(=O)NC(=O)/C=C/c2ccc(Cl)cc2)c(SCc2cccc3ccccc23)cc1Cl [Compound 16d, (E)–N–{4–Chloro–5–methyl–2–[(naphthalen–1–yl)methylthio]phenylsulfonyl}–3–(4–chlorophenyl)acrylamide] | > 125 mg/L | 348.21 ± 0.29 mg/L (≈ 642 µM) | 2 ± 0.87 mg/L (≈ 3.69 µM) | < 10 mg/L | 1.1 | 10.8 ± 0.4 mg/L (≈ 19.9 µM) | 627.81 ± 2.29 mg/L (≈ 1160 µM) | 62.5 ± 0.29 mg/L (≈ 115 µM) | > 125 mg/L | 1.88 × 10^8 CFU/mL | 1.66 × 10^8 CFU/mL | 1.58 × 10^8 CFU/mL | 1.27 × 10^8 CFU/mL | 12.8 ± 0.29 mg/L (≈ 23.6 µM) | 0.8 | 2 ± 0.58 mg/L (≈ 3.69 µM) | 7.87 ± 0.03 mg/L (≈ 14.5 µM) | 1.4 | 1 ± 0.29 mg/L (≈ 1.84 µM) | 1 mg/L (≈ 1.84 µM) | IC50 (HeLa cells): 9.66 ± 0.75 mg/L (≈ 17.8 µM)
COc1ccc(/C=C/C(=O)NS(=O)(=O)c2cc(C)c(Cl)cc2SCc2cccc3ccccc23)cc1F [Compound 16e, (E)–N–{4–Chloro–5–methyl–2–[(naphthalen–1–yl)methylthio]phenylsulfonyl}–3–(3–fluoro–4–methoxyphenyl)acrylamide] | > 125 mg/L | 539.30 ± 0.13 mg/L (≈ 970 µM) | 4 ± 0.15 mg/L (≈ 7.19 µM) | 12.3 ± 0.2 mg/L (≈ 22.2 µM) | 0.8 | 10 ± 0.23 mg/L (≈ 18 µM) | 697.70 ± 0.43 mg/L (≈ 1250 µM) | 62.5 ± 0.29 mg/L (≈ 112 µM) | 62.5 ± 0.29 mg/L (≈ 112 µM) | 2.15 × 10^8 CFU/mL | 1.27 × 10^8 CFU/mL | 1.94 × 10^8 CFU/mL | 2.80 × 10^8 CFU/mL | 15.5 ± 0.82 mg/L (≈ 27.8 µM) | 0.6 | 4 ± 0.15 mg/L (≈ 7.19 µM) | 12.2 ± 0.23 mg/L (≈ 21.9 µM) | 0.8 | 1 ± 0.29 mg/L (≈ 1.8 µM) | 2 ± 0.58 mg/L (≈ 3.6 µM) | 
Cc1cc(S(=O)(=O)NC(=O)/C=C/c2ccc(Cl)cc2)c(SCc2cc3c(cc2Cl)OCO3)cc1Cl [Compound 17c, (E)–N–{4–Chloro–2–[(6–chlorobenzo[d][1,3]dioxol–5–yl)methylthio]–5–methylphenylsulfonyl}–3–(4–chlorophenyl)acrylamide] | > 125 mg/L | 1077.66 ± 0.42 mg/L (≈ 1890 µM) | 2 ± 0.58 mg/L (≈ 3.5 µM) | 11.2 ± 0.7 mg/L (≈ 19.7 µM) | 1.3 | 14.6 ± 0.58 mg/L (≈ 25.5 µM) | 496.63 ± 0.48 mg/L (≈ 870 µM) | 62.5 ± 0.29 mg/L (≈ 109 µM) | > 125 mg/L | 2.24 × 10^8 CFU/mL | 1.09 × 10^8 CFU/mL | 2.02 × 10^8 CFU/mL | 9.35 × 10^7 CFU/mL | 11.6 ± 0.91 mg/L (≈ 20.4 µM) | 1.2 | 2 ± 0.58 mg/L (≈ 3.5 µM) | 12 ± 1.07 mg/L (≈ 20.9 µM) | 1.2 | 1 ± 0.29 mg/L (≈ 1.75 µM) | 1 ± 0.29 mg/L (≈ 1.75 µM) | 
